Assay results published in patent US20250188092A1, “RIFAMYCIN ANALOGS” (THE REGENTS OF THE UNIVERSITY OF MICHIGAN, priority 2021, published 2025).
In brackets after ≈: the same amount, converted by molar mass. Like-named read-outs stand apart in the source and are kept apart here.

Tests used:
[1] = molecular target: T1, E. coli S531L (RIF^R) RNAP (Escherichia coli, UniProt P0A8V2, S531L); experiment: biochemical
T1 construct: made in house

[2] = test system: DPX2 cells; conditions: for DPX2 Viability @ 6.25 μM: 24 h; for DPX2 Viability @ 25 μM: human
[3] = test system: VERO cells (ATCC CRL-81); experiment: Vero cell toxicity; assay type: cell-based; conditions: Chlorocebus sabaeus, Vero; 72 hours exposure
Method: Cytotoxicity for a mammalian cell line was determined by exposing VERO cells (ATCC CRL-81) to serial dilutions of test compounds for 72 hours, followed by addition of resazurin and measurement of fluorescence after 4 hours incubation (Choules, et al., Antimnicrob. Agents Chemother. 2019, 63, e02204-02218).

[4] = test system: MTB H37Rv ATCC 27294; experiment: MIC, microplate Alamar Blue assay (MABA); assay type: cell-based, Mycobacterium tuberculosis; conditions: for MIC / MIC90: Mycobacterium tuberculosis, MTB H37Rv ATCC 27294, microplate Alamar Blue assay, lowest concentration giving ≥90% reduction in fluorescence; for MIC: read-out: MIC90 MABA
[5] = molecular target: T2, E. coli D516V (RIF^R) RNAP (Escherichia coli, UniProt P0A8V2, D516V); experiment: biochemical
T2 construct: made in house

[6] = test system: M. tuberculosis H37Rv; experiment: Minimum bactericidal concentration (MBC, CFU Assay); assay type: cell-based, Mycobacterium tuberculosis; conditions: for MBC: Mycobacterium tuberculosis, 168 h, Day 7, M. tuberculosis H37Rv, ≥99% reduction in colony forming units, read-out: MBC99 Day 7 (CFU Assay) MBC99
[7] = molecular target: T3, E. coli WT RNAP (Escherichia coli, UniProt P0A8V2); experiment: biochemical
T3 construct: made in house

[8] = CFU Assay MBC99 relative to rifampin (RMP = 1)

Row | SMILES | IC50 [1] [µM] | DPX2 Viability @ 6.25 μM [2] [%] | DPX2 Viability @ 25 μM [2] [%] | IC50 [3] [µM] | MIC90 MABA Rel to RMP [4] | MIC [4] [µM] | IC50 [5] [µM] | MBC99 Day 7 (CFU Assay) MBC99 Rel to RMP [6, 8] | MBC [6] [µM] | IC50 [7] [µM] | MBC99 Day 7 (CFU Assay) MBC99 Rel to RMP [6] | MIC90 [4] [µM]
1 | CO[C@H]1/C=C/O[C@@]2(C)Oc3c(C)c(O)c4c(=O)c(c5oc6cccc(OCCCCN7CCN(C)CC7)c6nc-5c4c3C2=O)NC(=O)/C(C)=C\C=C\[C@H](C)[C@H](O)[C@@H](C)[C@@H](O)[C@@H](C)[C@H](OC(C)=O)[C@@H]1C [Compound 5a, (7S,9E,11S,12R,13S,14R,15R,16R,17S,18S,19E,21Z)-2,15,17-Trihydroxy-11-methoxy-3,7,12,14,16,18,22-heptamethyl-32-[4-(4-methylpiperazin-1-yl)butoxy]-6,23,37-trioxo-8,27,38-trioxa-24,34-diazahexacyclo[23.11.1.1^4,7.0^5,36.0^26,35.0^28,33]octatriaconta-1(36)2,4,9,19,21,25,28(33)29,31,34-undecaen-13-yl acetate] | 790 | 87 | 47 | > 8 | 3.1 | 0.092 | 27 | 0.77 | 0.1 | 0.006 |  | 
2 | CO[C@H]1/C=C/O[C@@]2(C)Oc3c(C)c(O)c4c(=O)c(c5oc6cccc(OCCCCN7CCOCC7)c6nc-5c4c3C2=O)NC(=O)/C(C)=C\C=C\[C@H](C)[C@H](O)[C@@H](C)[C@@H](O)[C@@H](C)[C@H](OC(C)=O)[C@@H]1C [Compound 5b, (7S,9E,11S,12R,13S,14R,15R,16R,17S,18S,19E,21Z)-2,15,17-Trihydroxy-11-methoxy-3,7,12,14,16,18,22-heptamethyl-32-[4-(morpholin-4-yl)butoxy]-6,23,37-trioxo-8,27,38-trioxa-24,34-diazahexacyclo[23.11.1.1^4,7.0^5,36.0^26,35.0^28,33]octatriaconta-1(36)2,4,9,19,21,25,28(33)29,31,34-undecaen-13-yl acetate] | 390 | 81 | 45 | > 8 | 0.70 | 0.021 | 65 | 0.38 | 0.05 | 0.007 |  | 
3 | CO[C@H]1/C=C/O[C@@]2(C)Oc3c(C)c(O)c4c(=O)c(c5oc6cccc(OCCCCN7CCN(C(=O)OC(C)(C)C)CC7)c6nc-5c4c3C2=O)NC(=O)/C(C)=C\C=C\[C@H](C)[C@H](O)[C@@H](C)[C@@H](O)[C@@H](C)[C@H](OC(C)=O)[C@@H]1C [Compound 5c, Tert-Butyl 4-(4-{[(7S,9E,11S,12R,13S,14R,15R,16R,17S,18S,19E,21Z)-13-(acetyloxy)-2,15,17-trihydroxy-11-methoxy-3,7,12,14,16,18,22-heptamethyl-6,23,37-trioxo-8,27,38-trioxa-24,34-diazahexacyclo[23.11.1.1^4,7.0^5,36.0^26,35.0^28,33]octatriaconta-1(36)2,4,9,19,21,25,28(33)29,31,34-undecaen-32-yl]oxy}butyl)piperazine-1-carboxylate] | 300 |  |  | 6.2 | 0.89 | 0.024 (≈ 0.025 µg/mL) | 22 | 0.77 | 0.1 (≈ 0.104 µg/mL) | < 0.005 |  | 
4 | CO[C@H]1/C=C/O[C@@]2(C)Oc3c(C)c(O)c4c(=O)c(c5oc6cc(N7CCN(CC(C)C)CC7)cc(OCCCCN7CCOCC7)c6nc-5c4c3C2=O)NC(=O)/C(C)=C\C=C\[C@H](C)[C@H](O)[C@@H](C)[C@@H](O)[C@@H](C)[C@H](OC(C)=O)[C@@H]1C [Compound 6a, (7S,9E,11S,12R,13S,14R,15R,16R,17S,18S,19E,21Z)-2,15,17-Trihydroxy-11-methoxy-3,7,12,14,16,18,22-heptamethyl-30-[4-(2-methylpropyl)piperazin-1-yl]-32-[4-(morpholin-4-yl)butoxy]-6,23,37-trioxo-8,27,38-trioxa-24,34-diazahexacyclo[23.11.1.1^4,7.0^5,36.0^26,35.0^28,33]octatriaconta-1(36)2,4,9,19,21,25,28(33)29,31,34-undecaen-13-yl acetate] | 80 | 102 | 86 | > 8 | 0.80 | 0.092 | 39 |  | 0.01 | 0.006 | 0.08 | 
5 | CO[C@H]1/C=C/O[C@@]2(C)Oc3c(C)c(O)c4c(=O)c(c5oc6cccc(OCc7cccc(CN8CCN(C(=O)Cc9ccccc9)CC8)c7)c6nc-5c4c3C2=O)NC(=O)/C(C)=C\C=C\[C@H](C)[C@H](O)[C@@H](C)[C@@H](O)[C@@H](C)[C@H](OC(C)=O)[C@@H]1C [Compound 11g, (7S,9E,11S,12R,13S,14R,15R,16R,17S,18S,19E,21Z)-2,15,17-Trihydroxy-11-methoxy-3,7,12,14,16,18,22-heptamethyl-6,23,37-trioxo-32-[(3-{[4-(2-phenylacetyl)-piperazin-1-yl]methyl}phenyl)methoxy]-8,27,38-trioxa-24,34-diazahexacyclo[23.11.1.1^4,7.0^5,36.0^26,35.0^28,33]octatriaconta-1(36)2,4,9,19,21,25,28,30,32,34-undecaen-13-yl acetate] | 28 | 88 | 70 | > 32 | 0.30 |  | 0.58 |  |  | < 0.005 |  | 0.011
6 | CO[C@H]1/C=C/O[C@@]2(C)Oc3c(C)c(O)c4c(=O)c(c5oc6cccc(OCc7ccc(CN8CCN(C(=O)CN9CCOCC9)CC8)cc7)c6nc-5c4c3C2=O)NC(=O)/C(C)=C\C=C\[C@H](C)[C@H](O)[C@@H](C)[C@@H](O)[C@@H](C)[C@H](OC(C)=O)[C@@H]1C [Compound 16c, (7S,9E,11S,12R,13S,14R,15R,16R,17S,18S,19E,21Z)-2,15,17-Trihydroxy-11-methoxy-3,7,12,14,16,18,22-heptamethyl-32-{[4-({4-[2-(morpholin-4-yl)acetyl]piperazin-1-yl}methyl)phenyl]methoxy}-6,23,37-trioxo-8,27,38-trioxa-24,34-diazahexacyclo[23.11.1.1^4,7.0^5,36.0^26,35.0^28,33]octatriaconta-1(36)2,4,9,19,21,25,28,30,32,34-undecaen-13-yl acetate] | 92 | 96 | 55 | > 8 | 0.51 |  | 10 |  |  | 0.005 |  | 0.019
7 | CO[C@H]1/C=C/O[C@@]2(C)Oc3c(C)c(O)c4c(=O)c(c5oc6cc(C)cc(N7CCN(CC(C)C)CC7)c6nc-5c4c3C2=O)NC(=O)/C(C)=C\C=C\[C@H](C)[C@H](O)[C@@H](C)[C@@H](O)[C@@H](C)[C@H](OC(C)=O)[C@@H]1C [Compound 30c, (7S,9E,11S,12R,13S,14R,15R,16R,17S,18S,19E,21Z)-2,15,17-Trihydroxy-11-methoxy-3,7,12,14,16,18,22,30-octamethyl-32-[4-(2-methylpropyl)piperazin-1-yl]-6,23,37-trioxo-8,27,38-trioxa-24,34-diazahexacyclo[23.11.1.1^4,7.0^5,36.0^26,35.0^28,33]octatriaconta-1(36)2,4,9,19,21,25,28,30,32,34-undecaen-13-yl acetate] | 130 | 93 | 49 | > 8 | <0.6 |  | 10 |  |  | 0.006 |  | < 0.016
8 | CO[C@H]1/C=C/O[C@@]2(C)Oc3c(C)c(O)c4c(=O)c(c5oc6cc(C=Nc7ccc(N8CCOCC8)cc7)cc(N7CCN(C)CC7)c6nc-5c4c3C2=O)NC(=O)/C(C)=C\C=C\[C@H](C)[C@H](O)[C@@H](C)[C@@H](O)[C@@H](C)[C@H](OC(C)=O)[C@@H]1C [Compound 32, (7S,9E,11S,12R,13S,14R,15R,16R,17S,18S,19E,21Z)-2,15,17-trihydroxy-11-methoxy-3,7,12,14,16,18,22-heptamethyl-32-(4-methylpiperazin-1-yl)-30-{N-[4-(morpholin-4-yl)phenyl]carboximidoyl}-6,23,37-trioxo-8,27,38-trioxa-24,34-diazahexacyclo[23.11.1.1^4,7.0^5,36.0^26,35.0^28,33]octatriaconta-1,3,5(36)9,19,21,25,28,30,32,34-undecaen-13-yl acetate] | 330 | 116 | 100 | > 8 | 1.74 |  | 30 |  |  | 0.01 |  | 0.047
